Measurements as given in the NIST ThermoML archive (doi:10.1021/acs.jced.5b01031).
Several values for one entry are separate records, joined by “and”; a condition that tells them apart may be missing. Identical values can stand only once.

Test: mn = molality of the nth substance listed, in mol/kg
Details: 81.5 kPa, Liquid; for mass density: Vibrating tube method; for viscosity: Capillary tube (Ostwald / Ubbelohde) method

NCC(=O)O [2-aminoacetic acid] + O
mass density [kg/m3]
Details	m1 = 0.1001	m1 = 0.1498	m1 = 0.1998	m1 = 0.2497	m1 = 0.2999	m1 = 0.3502	m1 = 0.4005	m1 = 0.45	m1 = 0.4993
303.15 K	998.79	1000.34	1001.88	1003.42	1004.95	1006.44	1007.94	1009.44	1010.87
308.15 K	997.12	–	1000.16	1001.68	1003.19	1004.66	1006.15	1007.62	1009.05
313.15 K	995.14	996.61	998.06	999.5	1000.94	1002.34	1003.74	1005.12	1006.46

C[C@H](N)C(=O)O [(S)-2-aminopropanoic acid] + O
mass density [kg/m3]
Details	m1 = 0.1001	m1 = 0.1501	m1 = 0.1998	m1 = 0.2502	m1 = 0.3	m1 = 0.3501	m1 = 0.3986	m1 = 0.4493	m1 = 0.4994
303.15 K	998.46	999.85	1001.23	1002.6	1003.96	1005.32	1006.62	1007.97	1009.28
308.15 K	996.83	998.21	999.58	1000.94	1002.29	1003.64	1004.93	1006.27	1007.56
313.15 K	995	996.39	997.76	999.11	1000.45	1001.77	1003.07	1004.36	1005.62

CC(C)[C@H](N)C(=O)O [L-valine] + O
mass density [kg/m3]
Details	m1 = 0.1004	m1 = 0.1489	m1 = 0.1996	m1 = 0.2497	m1 = 0.3001	m1 = 0.3488	m1 = 0.3995	m1 = 0.4501	m1 = 0.4989
303.15 K	998.27	999.57	1000.84	1002.1	1003.33	1004.55	1005.74	1006.93	1008.09
308.15 K	996.63	997.9	999.16	1000.41	1001.63	1002.84	1004.02	1005.2	1006.34
313.15 K	994.92	996.25	997.55	998.83	1000.05	1001.27	1002.46	1003.61	1004.75

O=C([O-])c1ccccc1.[Na+] [sodium benzoate] + O
Details	mass density, 303.15 K	mass density, 308.15 K	mass density, 313.15 K	viscosity, 303.15 K	viscosity, 308.15 K	viscosity, 313.15 K
m1 = 0.1011	1001.3 kg/m3 and 1001.31 kg/m3	999.49 kg/m3 and 999.34 kg/m3 and 999.62 kg/m3	997.41 kg/m3 and 997.51 kg/m3	0.845 mPa·s and 0.84 mPa·s	0.757 mPa·s and 0.758 mPa·s	0.686 mPa·s and 0.691 mPa·s
m1 = 0.3088	1012.46 kg/m3 and 1012.49 kg/m3	1010.59 kg/m3 and 1010.54 kg/m3 and 1010.6 kg/m3	1008.16 kg/m3 and 1008.27 kg/m3 and 1008.53 kg/m3	0.92 mPa·s and 0.926 mPa·s and 0.931 mPa·s	0.821 mPa·s and 0.837 mPa·s	0.748 mPa·s and 0.753 mPa·s
m1 = 0.5245	1023.61 kg/m3 and 1023.59 kg/m3 and 1023.51 kg/m3	1021.52 kg/m3 and 1021.61 kg/m3 and 1021.49 kg/m3	1019.94 kg/m3	1.024 mPa·s and 1.013 mPa·s and 1.019 mPa·s	0.918 mPa·s and 0.912 mPa·s	0.806 mPa·s and 0.812 mPa·s and 0.817 mPa·s
